“And” between values parts separate entries of the source, which are not always exact repeats. Equal entries are not always repeated.
Assays:
[1] = biological target: Glutamate receptor ionotropic, kainate 2 (Homo sapiens, UniProt Q13002)
[2] = biological target: Glutamate receptor ionotropic, kainate 1 (Homo sapiens, UniProt P39086)
Sequence of Glutamate receptor ionotropic, kainate 1 (P39086 whole entry): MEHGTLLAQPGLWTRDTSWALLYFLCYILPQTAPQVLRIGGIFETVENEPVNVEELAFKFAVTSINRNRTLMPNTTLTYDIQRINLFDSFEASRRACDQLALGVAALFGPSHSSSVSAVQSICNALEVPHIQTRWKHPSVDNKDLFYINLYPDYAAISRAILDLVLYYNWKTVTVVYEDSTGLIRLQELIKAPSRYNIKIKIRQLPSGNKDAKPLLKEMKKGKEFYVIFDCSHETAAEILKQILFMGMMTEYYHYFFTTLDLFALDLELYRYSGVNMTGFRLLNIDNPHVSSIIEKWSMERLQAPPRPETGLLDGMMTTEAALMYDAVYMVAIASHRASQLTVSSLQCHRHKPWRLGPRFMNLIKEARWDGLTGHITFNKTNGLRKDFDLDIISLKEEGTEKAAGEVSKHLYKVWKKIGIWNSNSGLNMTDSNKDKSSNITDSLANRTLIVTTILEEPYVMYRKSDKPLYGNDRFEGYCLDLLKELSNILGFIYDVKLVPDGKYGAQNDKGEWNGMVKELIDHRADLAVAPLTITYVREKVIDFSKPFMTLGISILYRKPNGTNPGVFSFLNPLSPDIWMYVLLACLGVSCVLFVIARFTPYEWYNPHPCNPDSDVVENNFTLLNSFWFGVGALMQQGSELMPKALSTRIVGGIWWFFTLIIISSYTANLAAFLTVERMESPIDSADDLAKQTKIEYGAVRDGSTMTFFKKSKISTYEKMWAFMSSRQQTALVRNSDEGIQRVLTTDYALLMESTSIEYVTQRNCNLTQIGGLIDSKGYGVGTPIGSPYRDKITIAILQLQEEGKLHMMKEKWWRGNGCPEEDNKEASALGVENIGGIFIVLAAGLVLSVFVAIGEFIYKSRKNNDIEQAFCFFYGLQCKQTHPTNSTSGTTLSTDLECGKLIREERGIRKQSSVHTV

Sequence of Glutamate receptor ionotropic, kainate 2 (Q13002 whole entry): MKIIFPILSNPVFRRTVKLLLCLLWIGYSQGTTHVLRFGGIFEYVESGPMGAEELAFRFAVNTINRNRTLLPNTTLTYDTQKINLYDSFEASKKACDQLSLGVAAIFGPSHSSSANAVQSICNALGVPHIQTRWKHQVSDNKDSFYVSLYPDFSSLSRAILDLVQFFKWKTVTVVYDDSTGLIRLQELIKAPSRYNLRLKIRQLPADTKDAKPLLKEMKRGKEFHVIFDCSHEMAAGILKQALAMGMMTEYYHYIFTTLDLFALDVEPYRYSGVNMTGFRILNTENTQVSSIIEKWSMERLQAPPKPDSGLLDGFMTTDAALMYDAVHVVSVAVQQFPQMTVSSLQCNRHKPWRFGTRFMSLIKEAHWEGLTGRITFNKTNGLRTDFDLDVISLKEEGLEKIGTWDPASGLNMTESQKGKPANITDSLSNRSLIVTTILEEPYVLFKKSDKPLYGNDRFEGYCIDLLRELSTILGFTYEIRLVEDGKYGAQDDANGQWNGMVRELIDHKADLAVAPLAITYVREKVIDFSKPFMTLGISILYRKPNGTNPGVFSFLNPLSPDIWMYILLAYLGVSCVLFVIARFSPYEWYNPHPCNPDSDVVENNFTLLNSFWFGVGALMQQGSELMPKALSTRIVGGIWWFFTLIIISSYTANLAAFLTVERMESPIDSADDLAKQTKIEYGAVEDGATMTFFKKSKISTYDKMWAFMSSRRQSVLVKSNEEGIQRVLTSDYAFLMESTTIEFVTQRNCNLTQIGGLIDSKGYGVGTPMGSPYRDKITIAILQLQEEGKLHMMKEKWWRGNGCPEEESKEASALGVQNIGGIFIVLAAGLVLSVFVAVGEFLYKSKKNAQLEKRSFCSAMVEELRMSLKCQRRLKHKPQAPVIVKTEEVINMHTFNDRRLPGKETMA

SMILES: CN1CCc2c(-c3ccc(S(=O)(=O)N(C)C)cc3)cc3c(c2C1)NC(=O)/C3=N\OC(CCO)C(=O)O (stereo not drawn) [SPD 502]
- Ki [1]: > 10 µM

SMILES: O=C(Nc1cc(NC(=O)c2ccccc2)c(C(=O)O)cc1C(=O)O)c1ccccc1 [NS3763]
- Ki [2]: > 10 µM and 1.6 µM
- Ki [1]: > 30 µM
